Results reported in the NIST ThermoML archive (doi:10.1021/je050089u).

Assay: excess molar enthalpy (molar enthalpy of mixing); xn = mol fraction of the nth substance listed
Settings: Fluid (supercritical or subcritical phases)

COC(=O)OC [dimethyl carbonate] + O=C=O
excess molar enthalpy [kcal/mol]
Settings | 303.15 K | 308.15 K
5000 kPa, x2 = 0.1537 | – | -0.47
5000 kPa, x2 = 0.2239 | – | -0.66
5000 kPa, x2 = 0.2901 | – | -0.855
5000 kPa, x2 = 0.412 | – | -1.2
5000 kPa, x2 = 0.4682 | – | -1.36
5000 kPa, x2 = 0.5215 | – | -1.49
5000 kPa, x2 = 0.6205 | – | -1.73
5000 kPa, x2 = 0.7103 | – | -1.93
5000 kPa, x2 = 0.7189 | – | -1.93
5000 kPa, x2 = 0.7273 | – | -1.88
5000 kPa, x2 = 0.7923 | – | -1.4
5000 kPa, x2 = 0.8674 | – | -0.854
5000 kPa, x2 = 0.9364 | – | -0.391
5000 kPa, x2 = 0.9877 | – | -0.00526
5000 kPa, x2 = 0.9939 | – | 0.0268
5500 kPa, x2 = 0.1547 | – | -0.44
5500 kPa, x2 = 0.2917 | – | -0.836
5500 kPa, x2 = 0.3544 | – | -1.02
5500 kPa, x2 = 0.4138 | – | -1.16
5500 kPa, x2 = 0.47 | – | -1.31
5500 kPa, x2 = 0.5234 | – | -1.45
5500 kPa, x2 = 0.574 | – | -1.57
5500 kPa, x2 = 0.6222 | – | -1.69
5500 kPa, x2 = 0.6681 | – | -1.78
5500 kPa, x2 = 0.7119 | – | -1.89
5500 kPa, x2 = 0.7536 | – | -1.94
5500 kPa, x2 = 0.7698 | – | -1.96
5500 kPa, x2 = 0.7935 | – | -1.79
5500 kPa, x2 = 0.8317 | – | -1.46
5500 kPa, x2 = 0.8682 | – | -1.12
5500 kPa, x2 = 0.9368 | – | -0.498
6000 kPa, x2 = 0.1556 | – | -0.426
6000 kPa, x2 = 0.2931 | – | -0.79
6000 kPa, x2 = 0.4154 | – | -1.12
6000 kPa, x2 = 0.4717 | – | -1.25
6000 kPa, x2 = 0.5757 | – | -1.5
6000 kPa, x2 = 0.6238 | – | -1.6
6000 kPa, x2 = 0.7132 | – | -1.77
6000 kPa, x2 = 0.7549 | – | -1.84
6000 kPa, x2 = 0.7946 | – | -1.91
6000 kPa, x2 = 0.7947 | -1.9 | –
6000 kPa, x2 = 0.8326 | – | -1.93
6000 kPa, x2 = 0.8327 | -1.93 | –
6000 kPa, x2 = 0.869 | – | -1.5
6000 kPa, x2 = 0.8691 | -1.96 | –
6000 kPa, x2 = 0.8901 | -1.95 | –
6000 kPa, x2 = 0.897 | -1.94 | –
6000 kPa, x2 = 0.9039 | -1.82 | –
6000 kPa, x2 = 0.9372 | -1.18 | -0.715
6000 kPa, x2 = 0.9692 | – | -0.276
6000 kPa, x2 = 0.9693 | -0.547 | –
6500 kPa, x2 = 0.0807 | – | -0.219
6500 kPa, x2 = 0.1564 | – | -0.404
6500 kPa, x2 = 0.2275 | – | -0.582
6500 kPa, x2 = 0.2944 | – | -0.751
6500 kPa, x2 = 0.3574 | – | -0.928
6500 kPa, x2 = 0.4169 | – | -1.05
6500 kPa, x2 = 0.4733 | – | -1.2
6500 kPa, x2 = 0.5266 | – | -1.31
6500 kPa, x2 = 0.5772 | – | -1.41
6500 kPa, x2 = 0.6253 | – | -1.52
6500 kPa, x2 = 0.671 | – | -1.61
6500 kPa, x2 = 0.7145 | – | -1.67
6500 kPa, x2 = 0.756 | – | -1.75
6500 kPa, x2 = 0.7956 | – | -1.8
6500 kPa, x2 = 0.8335 | – | -1.83
6500 kPa, x2 = 0.8697 | – | -1.85
6500 kPa, x2 = 0.8837 | – | -1.84
6500 kPa, x2 = 0.9044 | – | -1.61
6500 kPa, x2 = 0.9376 | – | -1.02
6500 kPa, x2 = 0.9694 | – | -0.47
7000 kPa, x2 = 0.0812 | – | -0.208
7000 kPa, x2 = 0.1572 | – | -0.389
7000 kPa, x2 = 0.2285 | – | -0.551
7000 kPa, x2 = 0.2956 | – | -0.722
7000 kPa, x2 = 0.3587 | – | -0.859
7000 kPa, x2 = 0.4184 | – | -1
7000 kPa, x2 = 0.4747 | – | -1.11
7000 kPa, x2 = 0.528 | – | -1.23
7000 kPa, x2 = 0.5786 | – | -1.32
7000 kPa, x2 = 0.6266 | – | -1.42
7000 kPa, x2 = 0.6723 | – | -1.49
7000 kPa, x2 = 0.7157 | – | -1.56
7000 kPa, x2 = 0.7571 | – | -1.62
7000 kPa, x2 = 0.7966 | – | -1.65
7000 kPa, x2 = 0.8343 | – | -1.69
7000 kPa, x2 = 0.8703 | – | -1.71
7000 kPa, x2 = 0.9049 | – | -1.68
7000 kPa, x2 = 0.9249 | – | -1.66
7000 kPa, x2 = 0.9443 | – | -1.35
7000 kPa, x2 = 0.9507 | – | -1.24
7000 kPa, x2 = 0.9697 | – | -0.767
7500 kPa, x2 = 0.0816 | – | -0.178
7500 kPa, x2 = 0.1579 | – | -0.338
7500 kPa, x2 = 0.2294 | – | -0.499
7500 kPa, x2 = 0.2967 | – | -0.633
7500 kPa, x2 = 0.36 | – | -0.771
7500 kPa, x2 = 0.4197 | – | -0.885
7500 kPa, x2 = 0.476 | – | -0.996
7500 kPa, x2 = 0.5294 | – | -1.09
7500 kPa, x2 = 0.5799 | – | -1.17
7500 kPa, x2 = 0.6279 | – | -1.24
7500 kPa, x2 = 0.6734 | – | -1.32
7500 kPa, x2 = 0.7168 | – | -1.37
7500 kPa, x2 = 0.7581 | – | -1.42
7500 kPa, x2 = 0.7974 | – | -1.44
7500 kPa, x2 = 0.835 | – | -1.46
7500 kPa, x2 = 0.871 | – | -1.47
7500 kPa, x2 = 0.9053 | – | -1.48
7500 kPa, x2 = 0.9382 | – | -1.42
7500 kPa, x2 = 0.9698 | – | -1.24
7500 kPa, x2 = 0.9759 | – | -1.02
